In EP4467137A1, “TREATMENT OF FRONTOTEMPORAL DEMENTIA OR FRONTOTEMPORAL LOBAR DEMENTIA” (Universidad Autónoma de Madrid, priority 2023, dated 2024):

How the values were obtained:
[1] = system: primary rat glial cultures; test: Anti-neuroinflammatory screening in LPS-treated primary glial cultures (Griess, normalized by MTT); assay type: cell-based; conditions: % reduction of nitrites, LPS alone = 100 % inflammation, read-out: Anti-neuro inflammatory effect at 3 µM (%)
Protocol: Screening for anti-inflammatory properties in primary rat glial cultures was performed according to the protocol described previously [Gameiro, Isabel et al. "Discovery of the first dual GSK3β inhibitor/Nrf2 inducer. A new multitarget therapeutic strategy for Alzheimer's disease." Scientific reports vol. 7 45701. 31 Mar. 2017, doi:10.1038/srep45701]. All compounds were evaluated at the single concentration of 3 µM. Neuroinflammation was quantified as the value of released […], measured by the Griess method, normalized by the number of viable cells measured by the MTT method [Mosmann, T. "Rapid colorimetric assay for cellular growth and survival: application to proliferation and cytotoxicity assays." Journal of immunological methods vol. 65, 1-2 (1983): 55-63. doi:10.1016/0022-1759(83)90303-4]. LPS alone was considered 100 % inflammation.
(§1) Based on the results obtained (Table 2), Compound 1 was selected for further in vitro and in vivo studies as it was endowed with the best anti-neuroinflammatory activity. Table 2: Comparative in vitro results. Cell viability/toxicity: effect of the compound per se on cell viability of […] cells measured with the MTT method. Anti-neuroinflammatory effect: % Reduction of nitrites in primary rat glial cultures. PAMPA-BBB: In vitro blood-brain barrier permeation assay, permeation rate Pe (10-6 cm.s-1). NRF2, CD (µM): Concentration of compound that doubles de activation of NRF2. ORAC: Oxygen radical absorbance capacity. LOX-5: lipoxygenase-5.

NRF2 = NRF2 induction, luciferase activity in AREc32 cells; assay type: cell-based; conditions: concentration that doubles the activation of NRF2, read-out: NRF2 CD
Text: Screening of NRF2 induction was quantified by luciferase activity in AREc32 cells as described in [Herrera-Arozamena, Clara et al. "Tuning melatonin receptor subtype selectivity in oxadiazolone-based analogues: Discovery of QR2 ligands and NRF2 activators with neurogenic properties." European journal of medicinal chemistry vol. 190 (2020): 112090. doi:10.1016/j.ejmech.2020.112090].
as §1

[2] = In vitro blood-brain barrier permeation assay (PAMPA-BBB); assay type: in vitro ADME; conditions: for Papp: PAMPA, permeation rate, mean ± SD, read-out: PAMPA-BBB Pe
Text: The in vitro blood-brain barrier permeation assay (PAMPA-BBB) was used for predicting the brain penetration of compounds, following a described method [Herrera-Arozamena, Clara et al. "Resveratrol-Based MTDLs to Stimulate Defensive and Regenerative Pathways and Block Early Events in Neurodegenerative Cascades." Journal of medicinal chemistry vol. 65,6 (2022): 4727-4751. doi:10.1021/acs.jmedchem.1c01883]. The results are given as the mean ± SD. In each experiment, 11 quality control standards of known BBB permeability were included to validate the analysis set.

[3] = Cell viability/toxicity by the MTT method; assay type: cell-based; conditions: human, effect of the compound per se on AREc332 cells
Text: as §1

[4] = molecular target: T1, human lipoxygenase-5 (hLOX-5) (Homo sapiens, UniProt P09917); test: Inhibition of human lipoxygenase-5; assay type: biochemical; conditions: mean ± SD of three independent experiments in triplicate; read-out: LOX5 IC50
T1 sequence (P09917 1-674): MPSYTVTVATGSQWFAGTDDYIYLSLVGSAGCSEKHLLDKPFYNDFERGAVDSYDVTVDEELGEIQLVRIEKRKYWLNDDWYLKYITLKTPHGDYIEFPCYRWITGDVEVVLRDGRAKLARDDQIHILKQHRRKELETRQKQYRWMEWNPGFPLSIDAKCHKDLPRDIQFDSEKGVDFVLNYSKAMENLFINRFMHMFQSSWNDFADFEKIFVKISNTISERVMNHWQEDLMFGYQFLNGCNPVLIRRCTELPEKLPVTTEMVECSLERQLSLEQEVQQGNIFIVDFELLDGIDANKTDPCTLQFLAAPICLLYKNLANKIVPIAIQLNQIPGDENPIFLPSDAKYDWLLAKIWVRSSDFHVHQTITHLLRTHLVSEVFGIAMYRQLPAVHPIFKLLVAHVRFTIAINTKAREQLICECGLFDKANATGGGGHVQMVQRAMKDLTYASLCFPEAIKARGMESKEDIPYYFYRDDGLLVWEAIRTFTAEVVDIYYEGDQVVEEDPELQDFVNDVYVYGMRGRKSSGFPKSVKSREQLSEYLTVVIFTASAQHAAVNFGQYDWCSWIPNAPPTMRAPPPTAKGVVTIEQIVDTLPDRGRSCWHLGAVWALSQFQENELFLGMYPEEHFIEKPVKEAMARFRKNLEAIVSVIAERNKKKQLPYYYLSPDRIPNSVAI
Protocol: The inhibition of human lipoxygenase-5 (hLOX-5) was performed as described [Herrera-Arozamena, Clara et al. "Tuning melatonin receptor subtype selectivity in oxadiazolone-based analogues: Discovery of QR2 ligands and NRF2 activators with neurogenic properties." European journal of medicinal chemistry vol. 190 (2020): 112090. doi:10.1016/j.ejmech.2020.112090], Data are the mean ± SD of three independent experiments performed in triplicate.

[5] = Oxygen Radical Absorbance Capacity Assay (ORAC); assay type: physicochemical; conditions: ORAC > 1.0 is a better ROS scavenger than trolox
Protocol: The Oxygen Radical Absorbance Capacity Assay (ORAC) was performed as described [Herrera-Arozamena, Clara et al. "Resveratrol-Based MTDLs to Stimulate Defensive and Regenerative Pathways and Block Early Events in Neurodegenerative Cascades." Journal of medicinal chemistry vol. 65,6 (2022): 4727-4751. doi:10.1021/acs.jmedchem.1c01883].

| SMILES | inhibition at 3 µM [1] [%] | EC (2-fold activation) (NRF2) [µM] | PAMPA-BBB predicted brain penetration [2] | Papp [2] [×10⁻⁶ cm/s] | CC50 [3] [µM] | IC50 [4] [µM] | ORAC (trolox equiv.) [5] [trolox equiv.] |
| --- | --- | --- | --- | --- | --- | --- | --- |
| COc1ccc2[nH]c(-c3c[nH]c4ccc(OC)cc34)cc2c1 [Compound 2, 5,5'-Dimethoxy-1H,1'H-2,3'-biindole] | 33.2 ± 11.8 | 0.329 ± 0.017 | cns+ | 8.7 ± 0.6 | 3 to 10 | 0.42 ± 0.03 | 1.5 ± 0.2 |
| c1ccc2c(c1)CC(c1c[nH]c3ccccc13)N2 (stereo not shown) [Compound 3, 3-(Indolin-2-yl)-1H-indole] | 24.4 ± 6.7 | 0.0713 ± 0.031 | cns+ | 11.5 ± 0.8 | > 30 | 2.89 ± 0.44 | 1.9 ± 0.1 |
| Clc1ccc2c(c1)CC(c1c[nH]c3ccc(Cl)cc13)N2 (stereo not shown) [Compound 4, 5-Chloro-3-(5-chloroindolin-2-yl)-1H-indole] | 29.6 ± 9.4 | 2.04 ± 0.2 | cns+ | 5.2 ± 0.4 | 10 to 30 | 4.57 ± 0.25 | 1.6 ± 0.2 |
| Clc1ccc2[nH]c(-c3c[nH]c4ccc(Cl)cc34)cc2c1 [Compound 5, 5,5'-Dichloro-1H,1'H-2,3'-biindole] | 30 ± 10 | 2.57 ± 0.68 | cns+ | 10.9 ± 0.7 | > 30 | > 100 | 0.5 ± 0.1 |
| COc1cccc2c1NC(c1c[nH]c3c(OC)cccc13)C2 (stereo not shown) [Compound 6, 7-Methoxy-3-(7-methoxyindolin-2-yl)-1H-indole] | 45 ± 8.7 | 3.27 ± 0.25 | cns+ | 18.5 ± 0.8 | > 30 | > 100 | 1.0 ± 0.1 |
| FC(F)(F)c1ccc2c(c1)CC(c1c[nH]c3ccc(C(F)(F)F)cc13)N2 (stereo not shown) [Compound 7, 5-(Trifluoromethyl)-3-(5-(trifluoromethyl)indolin-2-yl)-1H-indole] | 45 ± 7.1 | > 30 | cns+ | 18.1 ± 0.9 | 10 to 30 | 6.63 ± 0.21 | 1.3 ± 0.1 |
| C#CCN1c2ccc(OC)cc2CC1c1cn(CC#C)c2ccc(OC)cc12 (stereo not shown) [Compound 8, 5-Methoxy-3-(5-methoxy-1-(prop-2-yn-1-yl)indolin-2-yl)-1-(prop-2-yn-1-yl)-1H-indole] | 37 ± 11 | 10.7 ± 1.3 | cns+ | 8.3 ± 0.3 | > 30 | 0.53 ± 0.02 | 1.3 ± 0.1 |
